Measured values published in ChEMBL document CHEMBL1201862, “PubChem BioAssay data set” (2004).
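Interpolation was linear, between the two tested concentrations surrounding the appropriate level; five concentrations were tested over 48 hours in 96-well plates. GI50 is the concentration that inhibits growth by half.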 Calls of active or inactive are those of the source. No stated cut-off is given here; in the data, active = GI50 up to about 1.1 µM and inactive = higher.

Tests used:
Experiment in all cases: NCI anticancer screen, dose series, 48 h
786-0 = tested on: 786-0
EKVX = tested on: EKVX
HL-60 = tested on: HL-60
HT-29 = tested on: HT-29
LXFL 529 = tested on: LXFL 529
MOLT-4 = tested on: MOLT-4
Malme-3M = tested on: Malme-3M
OVCAR-5 = tested on: OVCAR-5
RPMI-8226 = tested on: RPMI-8226
RXF 393 = tested on: RXF 393
SK-MEL-28 = tested on: SK-MEL-28
SNB-75 = tested on: SNB-75
UACC-62 = tested on: UACC-62
UO-31 = tested on: UO-31
NCI-H522 = tested on: NCI-H522
SF-268 = tested on: SF-268

Measured: GI50

Cc1[nH]c2ccccc2c1-c1n[nH]c(=O)c2ccccc12
inactive: 786-0 27 µM | EKVX 17.9 µM | HL-60 7.82 µM | HT-29 24.1 µM | LXFL 529 21.6 µM | MOLT-4 20.5 µM | Malme-3M 22.3 µM | OVCAR-5 46.5 µM | RPMI-8226 20.8 µM | RXF 393 12.9 µM | SK-MEL-28 26.5 µM | SNB-75 15.3 µM | UACC-62 19.5 µM | UO-31 17.3 µM

CC(=O)OC1COC(n2c(=S)n(-c3ccc(C)cc3)c(=O)c3ccccc32)C(OC(C)=O)C1OC(C)=O (centres undefined)
inactive: 786-0 > 100 µM | EKVX > 100 µM | HT-29 > 100 µM | LXFL 529 58.3 µM | MOLT-4 > 100 µM | Malme-3M > 100 µM | NCI-H522 > 100 µM | OVCAR-5 > 100 µM | RPMI-8226 47.5 µM | RXF 393 67.3 µM | SF-268 > 100 µM | SK-MEL-28 > 100 µM | SNB-75 63.2 µM | UACC-62 > 100 µM | UO-31 > 100 µM

CCOC(=O)/C=C1\CCCC12OCCO2
inactive: 786-0 > 100 µM | HL-60 > 100 µM | LXFL 529 > 100 µM | MOLT-4 30.5 µM | Malme-3M > 100 µM | NCI-H522 2.87 µM | RPMI-8226 49.7 µM | RXF 393 > 100 µM | SF-268 > 100 µM | SK-MEL-28 > 100 µM | SNB-75 77.3 µM | UACC-62 > 100 µM | UO-31 > 100 µM

NC1CCCCC1.O=C(O)C1(P(=O)(O)O)CC1
inactive: 786-0 > 100 µM | EKVX > 100 µM | HL-60 > 100 µM | LXFL 529 > 100 µM | MOLT-4 > 100 µM | Malme-3M > 100 µM | NCI-H522 > 100 µM | RPMI-8226 > 100 µM | RXF 393 > 100 µM | SF-268 > 100 µM | SK-MEL-28 > 100 µM | SNB-75 92.3 µM | UACC-62 > 100 µM | UO-31 > 100 µM

CC(C)OC(=O)c1cccnc1/C=N/O
inactive: 786-0 > 100 µM | EKVX > 100 µM | HL-60 > 100 µM | HT-29 > 100 µM | LXFL 529 > 100 µM | MOLT-4 > 100 µM | Malme-3M > 100 µM | NCI-H522 > 100 µM | OVCAR-5 > 100 µM | RPMI-8226 > 100 µM | SF-268 > 100 µM | SNB-75 > 100 µM | UACC-62 > 100 µM | UO-31 > 100 µM

O=S(=O)(N/N=C/c1cccc(/C=N/NS(=O)(=O)c2ccccc2)c1)c1ccccc1
inactive: 786-0 > 100 µM | EKVX 77.6 µM | HL-60 63.4 µM | HT-29 86.1 µM | LXFL 529 39 µM | MOLT-4 84.5 µM | Malme-3M > 100 µM | OVCAR-5 > 100 µM | RPMI-8226 70.8 µM | RXF 393 51.6 µM | SF-268 > 100 µM | SK-MEL-28 88.7 µM | SNB-75 > 100 µM | UACC-62 85.9 µM | UO-31 46.7 µM

NC1CCC2(O)c3ccccc3C2C1 (centres undefined)
inactive: 786-0 > 100 µM | EKVX > 100 µM | HL-60 > 100 µM | HT-29 > 100 µM | LXFL 529 > 100 µM | MOLT-4 > 100 µM | Malme-3M > 100 µM | NCI-H522 > 100 µM | RPMI-8226 > 100 µM | RXF 393 > 100 µM | SF-268 > 100 µM | SK-MEL-28 > 100 µM | SNB-75 > 100 µM | UACC-62 > 100 µM | UO-31 > 100 µM

NC(=O)C(=O)C1C(=O)N(c2ccccc2)N=C1N (centres undefined)
inactive: 786-0 > 100 µM | HL-60 > 100 µM | HT-29 > 100 µM | LXFL 529 > 100 µM | MOLT-4 > 100 µM | Malme-3M > 100 µM | NCI-H522 > 100 µM | OVCAR-5 > 100 µM | RPMI-8226 > 100 µM | SF-268 > 100 µM | SK-MEL-28 > 100 µM | SNB-75 > 100 µM | UACC-62 > 100 µM | UO-31 > 100 µM

CNC(C)(C)Cc1ccc(Cl)cc1
inactive: 786-0 > 100 µM | EKVX > 100 µM | HT-29 > 100 µM | LXFL 529 > 100 µM | MOLT-4 > 100 µM | Malme-3M > 100 µM | NCI-H522 > 100 µM | RPMI-8226 > 100 µM | RXF 393 > 100 µM | SF-268 > 100 µM | SK-MEL-28 > 100 µM | SNB-75 > 100 µM | UACC-62 > 100 µM

Cc1ccc(/N=N/c2c(C)nn(-c3ccccc3)c2-c2ccccc2)c(Br)c1
inactive: 786-0 32.6 µM | EKVX > 100 µM | HL-60 4.3 µM | HT-29 27.6 µM | LXFL 529 87.9 µM | MOLT-4 8.15 µM | Malme-3M > 100 µM | NCI-H522 97.1 µM | SF-268 > 100 µM | SK-MEL-28 > 100 µM | SNB-75 > 100 µM | UACC-62 40 µM | UO-31 > 100 µM

Cc1ccccc1NC(=O)C(=O)Cc1nc2ccccc2s1
inactive: 786-0 > 100 µM | HL-60 > 100 µM | HT-29 > 100 µM | LXFL 529 > 100 µM | MOLT-4 > 100 µM | Malme-3M > 100 µM | NCI-H522 > 100 µM | OVCAR-5 > 100 µM | RXF 393 > 100 µM | SF-268 > 100 µM | SK-MEL-28 > 100 µM | SNB-75 > 100 µM | UO-31 > 100 µM

N#C/C(=C1\SC(C(N)=O)=C(N)N1c1ccccc1)c1nc2ccccc2[nH]1
inactive: 786-0 > 100 µM | EKVX > 100 µM | HL-60 > 100 µM | HT-29 82.8 µM | LXFL 529 > 100 µM | MOLT-4 > 100 µM | Malme-3M > 100 µM | NCI-H522 > 100 µM | OVCAR-5 > 100 µM | SF-268 > 100 µM | SK-MEL-28 > 100 µM | SNB-75 48.2 µM | UACC-62 > 100 µM | UO-31 99.1 µM

CSc1nc2c(nc(N)n2C2OC(COC(C)=O)C(OC(C)=O)C(OC(C)=O)C2OC(C)=O)c(=O)n1C (centres undefined)
inactive: 786-0 > 100 µM | EKVX > 100 µM | HL-60 > 100 µM | HT-29 > 100 µM | LXFL 529 > 100 µM | MOLT-4 > 100 µM | Malme-3M > 100 µM | OVCAR-5 > 100 µM | RPMI-8226 > 100 µM | RXF 393 > 100 µM | SNB-75 > 100 µM | UACC-62 > 100 µM | UO-31 > 100 µM

CC1C=CC(C)C2(O)C(=O)NC(O)C12 (centres undefined)
inactive: 786-0 > 100 µM | EKVX > 100 µM | HL-60 > 100 µM | LXFL 529 > 100 µM | MOLT-4 > 100 µM | Malme-3M > 100 µM | NCI-H522 > 100 µM | RPMI-8226 > 100 µM | RXF 393 > 100 µM | SF-268 > 100 µM | SK-MEL-28 > 100 µM | SNB-75 > 100 µM | UACC-62 > 100 µM | UO-31 > 100 µM
